The structures appear in SMILES notation. Read-outs that look alike come from different tables or passages of the source. Some results are limits rather than exact numbers.

Our source for the EC50 values is patent publication US8575135B2 (Gilead Sciences, Inc., priority 2011, dated 2013).

Common to all, as to assay: microbe, parasite or virus in culture
What all share (conditions): Hepatitis C virus

The test system of assay [1] is stable HCV 2a JFH-1 Rluc replicon cells (L31 present in NS5A). Type of assay: cell-based.
Assay [2] relates to NS5A chimeric genotype 2a JFH-1 replicon with genotype 2a J6 strain NS5A gene (M31 present). Type of assay: cell-based, HCV. How it is done: (§1) Evaluation of Cell-Based Anti-HCV Activity:
(§2) Antiviral potency (EC50) was determined using a Renilla luciferase (RLuc)-based HCV replicon reporter assay. […] To perform the assay for genotype 2a (with M31 present in NS5A) or 2b, NS5A chimeric genotype 2a JFH-1 replicons that encodes a RLuc-Neo reporter and either genotype 2a J6 strain NS5A gene or genotype 2b MD2b-1 strain NS5A gene (both with M31 present) respectively, were either transiently transfected (t) into Huh-Lunet cells or were established as stably replicating replicon cells (s) is provided. Either cells were dispensed into 384-well plates for EC50 assays. To perform the assay for genotype 3 and 4, NS5A chimeric genotype 1b Con1 replicons that encodes a Pi-RLuc reporter and either genotype 3a S52 strain NS5A gene or genotype 4a ED43 strain NS5A gene respectively, were transiently transfected (t) into Huh-Lunet cells, which were subsequently dispensed into 384-well plates. Compounds were dissolved in DMSO at a concentration of 10 mM and diluted in DMSO either manually or using an automated pipeting instrument. Serially 3-fold diluted compounds were either manually mixed with cell culture media and added to the seeded cells or directly added to the cells using an automated instrument. […] 72 hours later, cells were lysed and Renilla luciferase activity quantified as recommended by the manufacturer (Promega-Madison, Wis.). Non-linear regression was performed to calculate EC50 values.

Assay [3] concerns NS5A chimeric genotype 2a JFH-1 replicon with genotype 2b MD2b-1 strain NS5A gene (M31 present). Type of assay: cell-based, HCV. How it is done: as §1, §2
The subject of assay [4] is NS5A chimeric genotype 1b Con1 replicon with genotype 4a ED43 strain NS5A gene. Type of assay: cell-based, HCV.
Assay [5] concerns stable HCV 1a RLuc replicon cells (genotype 1a H77 replicon). Type of assay: cell-based. How it is done:
as §1, §2

As to `COC(=O)N[C@H](C(=O)N1[C@@H](C)CC[C@H]1c1ncc(-c2ccc3c(c2)COc2cc4c(ccc5nc([C@@H]6CCCN6C(=O)[C@@H](NC(=O)OC)C6CCOCC6)[nH]c54)cc2-3)[nH]1)C(C)C` [Compound 602], the EC50 in assay [1] (read-out: 2a JFH) was less than 1 nM; in assay [1] (read-out: 2a JFH (nM)), 0.01 nM; in assay [2] (read-out: 2a J6), less than 1 nM; in assay [2] (read-out: 2a Jb (t) (nM)), 0.053 nM; in assay [3] (read-out: 2b) it was less than 1 nM; in assay [3] (read-out: 2b (s) (nM)), 0.036 nM. The EC50 in assay [3] (read-out: 2b (t) (nM)) was 0.036 nM; in assay [4] (read-out: 4a), less than 1 nM; in assay [4] (read-out: 4a (s) (nM)) it was 0.013 nM; in assay [5] (read-out: 1a) it was less than 1 nM; in assay [5] (read-out: 1a (nM)) it was 0.025 nM.
For the compound `CC[C@@H](C)[C@H](NC(=O)OC)C(=O)N1C[C@@H](COC)C[C@H]1c1nc2ccc3cc4c(cc3c2[nH]1)OCc1cc(-c2cnc([C@@H]3CC[C@H](C)N3C(=O)[C@@H](NC(=O)OC)[C@H](C)CC)[nH]2)ccc1-4` [Compound 643], the EC50 in assay [1] (read-out: 2a JFH) is less than 1 nM; in assay [1] (read-out: 2a JFH (nM)), 0.013 nM; in assay [2] (read-out: 2a J6), less than 1 nM; in assay [2] (read-out: 2a Jb (t) (nM)) it was 0.206 nM; in assay [3] (read-out: 2b), less than 1 nM; in assay [3] (read-out: 2b (t) (nM)) it was 0.607 nM. For the same compound, the EC50 was less than 1 nM in assay [5] (read-out: 1a) and 0.015 nM in assay [5] (read-out: 1a (nM)).
With `COC[C@H]1C[C@@H](c2nc3ccc4cc5c(cc4c3[nH]2)OCc2cc(-c3ccc4nc([C@@H]6CCCN6C(=O)[C@@H](NC(=O)OC)C(C)C)[nH]c4c3)ccc2-5)N(C(=O)[C@H](NC(=O)OC)c2ccccc2)C1` [Example MS], the EC50 in assay [1] (read-out: 2a JFH) was less than 1 nM; in assay [1] (read-out: 2a JFH (nM)), 0.005 nM; in assay [2] (read-out: 2a J6) it was more than 5 nM; in assay [2] (read-out: 2a J6 (s) (nM)), 15.6 nM; in assay [3] (read-out: 2b), more than 5 nM; in assay [3] (read-out: 2b (s) (nM)), 9.56 nM. Besides, the EC50 is less than 1 nM in assay [4] (read-out: 4a); 0.02 nM in assay [4] (read-out: 4a (s) (nM)); 0.014 nM in assay [4] (read-out: 4a (t) (nM)); less than 1 nM in assay [5] (read-out: 1a); 0.008 nM in assay [5] (read-out: 1a (nM)).
`CC[C@H](C)[C@H](NC(=O)OC)C(=O)N1C[C@@H](COC)C[C@H]1c1ncc(-c2ccc3c(c2)COc2cc4c(ccc5nc([C@@H]6CC[C@H](C)N6C(=O)[C@@H](NC(=O)OC)C(C)C)[nH]c54)cc2-3)[nH]1` [Example OF, Methyl {(2S,3S)-1-[(2S,4S)-2-(5-{2-[(2S,5S)-1-{(2S)-2-[(methoxycarbonyl)amino]-3-methylbutanoyl}-5-methylpyrrolidin-2-yl]-1,11-dihydroisochromeno[4′,3′:6,7]naphtho[1,2-d]imidazol-9-yl}-1H-imidazol-2-yl)-4-(methoxymethyl)pyrrolidin-1-yl]-3-methyl-1-oxopentan-2-yl}carbamate]: the EC50 in assay [1] (read-out: 2a JFH) was less than 1 nM; in assay [1] (read-out: 2a JFH (nM)), 0.008 nM; in assay [2] (read-out: 2a J6), less than 1 nM; in assay [2] (read-out: 2a Jb (t) (nM)), 0.445 nM; in assay [3] (read-out: 2b), less than 1 nM; in assay [3] (read-out: 2b (t) (nM)), 0.196 nM. The values for the EC50 in assay [5] (read-out: 1a) and in assay [5] (read-out: 1a (nM)) were less than 1 nM and 0.01 nM, respectively.
`CC[C@@H](C)[C@H](NC(=O)OC)C(=O)N1C[C@@H](COC)C[C@H]1c1ncc(-c2ccc3c(c2)COc2cc4c(ccc5nc([C@@H]6CC[C@H](C)N6C(=O)[C@@H](NC(=O)OC)C(C)C)[nH]c54)cc2-3)[nH]1` [Example OG, Methyl {(2S)-1-[(2S,5S)-2-(9-{2-[(2S,4S)-1-[N-(methoxycarbonyl)-L-alloisoleucyl]-4-(methoxymethyl)pyrrolidin-2-yl]-1H-imidazol-5-yl}-1,11-dihydroisochromeno[4′,3′:6,7]naphtho[1,2-d]imidazol-2-yl)-5-methylpyrrolidin-1-yl]-3-methyl-1-oxobutan-2-yl}carbamate]: the EC50 was less than 1 nM in assay [1] (read-out: 2a JFH); 0.008 nM in assay [1] (read-out: 2a JFH (nM)); less than 1 nM in assay [2] (read-out: 2a J6); 0.601 nM in assay [2] (read-out: 2a Jb (t) (nM)); less than 1 nM in assay [3] (read-out: 2b); 0.437 nM in assay [3] (read-out: 2b (t) (nM)). The EC50 in assay [5] (read-out: 1a) was less than 1 nM; in assay [5] (read-out: 1a (nM)) it was 0.009 nM.
`COC[C@H]1C[C@@H](c2ncc(-c3ccc4c(c3)COc3cc5c(ccc6nc([C@@H]7CCCN7C(=O)[C@@H](NC(=O)OC)C(C)C)[nH]c65)cc3-4)[nH]2)N(C(=O)[C@H](N)c2ccccc2)C1` [Example OL, Methyl {(2S)-1-[(2S)-2-(9-{2-[(2S,4S)-[(2R)-2-amino-2-phenylacetyl]-4-(methoxymethyl)pyrrolidin-2-yl]-1H-imidazol-5-yl}-1,11-dihydroisochromeno[4′,3′:6,7]naphtho[1,2-d]imidazol-2-yl)pyrrolidin-1-yl]-3-methyl-1-oxobutan-2-yl}carbamate]: the EC50 was less than 1 nM in assay [1] (read-out: 2a JFH); 0.012 nM in assay [1] (read-out: 2a JFH (nM)); less than 1 nM in assay [2] (read-out: 2a J6); 0.07 nM in assay [2] (read-out: 2a Jb (t) (nM)); less than 1 nM in assay [3] (read-out: 2b); 0.052 nM in assay [3] (read-out: 2b (s) (nM)). The figures for the EC50 in assay [3] (read-out: 2b (t) (nM)), in assay [5] (read-out: 1a) and in assay [5] (read-out: 1a (nM)) were 0.052 nM, less than 1 nM and 0.047 nM, respectively.
Take `CC[C@H](C)[C@H](NC(=O)OC)C(=O)N1[C@@H](C)CC[C@H]1c1ncc(-c2ccc3c(c2)COc2cc4c(ccc5nc([C@@H]6C[C@H](COC)CN6C(=O)[C@@H](NC(=O)OC)C(C)C)[nH]c54)cc2-3)[nH]1` [Example OX, Methyl {(2S)-1-[(2S,4S)-2-(9-{2-[(2S,5S)-1-{(2S,3S)-2-[(methoxycarbonyl)amino]-3-methylpentanoyl}-5-methylpyrrolidin-2-yl]-1H-imidazol-5-yl}-1,11-dihydroisochromeno[4′,3′:6,7]naphtho[1,2-d]imidazol-2-yl)-4-(methoxymethyl)pyrrolidin-1-yl]-3-methyl-1-oxobutan-2-yl}carbamate]: the EC50 in assay [1] (read-out: 2a JFH) was less than 1 nM; in assay [1] (read-out: 2a JFH (nM)), 0.006 nM; in assay [2] (read-out: 2a J6), less than 1 nM; in assay [2] (read-out: 2a Jb (t) (nM)), 0.113 nM; in assay [3] (read-out: 2b), less than 1 nM; in assay [3] (read-out: 2b (t) (nM)) it was 0.107 nM. Moreover, the results for the EC50 in assay [5] (read-out: 1a) and in assay [5] (read-out: 1a (nM)) were less than 1 nM and 0.007 nM, respectively.
On to `COC(=O)N[C@H](C(=O)N1C[C@@H](COC(F)F)C[C@H]1c1ncc(-c2ccc3c(c2)COc2cc4c(ccc5nc([C@@H]6CC[C@H](C)N6C(=O)[C@@H](NC(=O)OC)C(C)C)[nH]c54)cc2-3)[nH]1)C(C)C` [Example PT, methyl {(2S)-1-[(2S,4S)-4-[(difluoromethoxy)methyl]-2-(5-{2-[(2S,5S)-1-{(2S)-2-[(methoxycarbonyl)amino]-3-methylbutanoyl}-5-methylpyrrolidin-2-yl]-1,11-dihydroisochromeno[4′,3′:6,7]naphtho[1,2-d]imidazol-9-yl}-1H-imidazol-2-yl)pyrrolidin-1-yl]-3-methyl-1-oxobutan-2-yl}carbamate], for which the EC50 is less than 1 nM in assay [1] (read-out: 2a JFH); 0.007 nM in assay [1] (read-out: 2a JFH (nM)); less than 1 nM in assay [2] (read-out: 2a J6); 0.383 nM in assay [2] (read-out: 2a Jb (t) (nM)); less than 1 nM in assay [3] (read-out: 2b); 0.182 nM in assay [3] (read-out: 2b (t) (nM)). In addition, the results for the EC50 in assay [5] (read-out: 1a) and in assay [5] (read-out: 1a (nM)) were less than 1 nM and 0.007 nM, respectively.
For the compound `COC[C@H]1C[C@@H](c2ncc(-c3ccc4c(c3)COc3cc5c(ccc6nc([C@@H]7C[C@H](COC(F)F)CN7C(=O)[C@@H](NC(=O)OC)C(C)C)[nH]c65)cc3-4)[nH]2)N(C(=O)[C@@H](NC(=O)OC)C(C)C)C1` [Example PU, methyl {(2S)-1-[(2S,4S)-2-(5-{2-[(2S,4S)-4-[(difluoromethoxy)methyl]-1-{(2S)-2-[(methoxycarbonyl)amino]-3-methylbutanoyl}pyrrolidin-2-yl]-1,11-dihydroisochromeno[4′,3′:6,7]naphtho[1,2-d]imidazol-9-yl}-1H-imidazol-2-yl)-4-(methoxymethyl)pyrrolidin-1-yl]-3-methyl-1-oxobutan-2-yl}carbamate], the EC50 is less than 1 nM in assay [1] (read-out: 2a JFH); 0.006 nM in assay [1] (read-out: 2a JFH (nM)); less than 1 nM in assay [2] (read-out: 2a J6); 0.068 nM in assay [2] (read-out: 2a Jb (t) (nM)); less than 1 nM in assay [3] (read-out: 2b); 0.442 nM in assay [3] (read-out: 2b (t) (nM)). The EC50 in assay [5] (read-out: 1a) is less than 1 nM; in assay [5] (read-out: 1a (nM)), 0.012 nM.
